Experimental data as given in paper PMC10998878, “Inhibition of acyl-CoA binding protein (ACBP) by means of a GABAARγ2-derived peptide” (Cell Death & Disease, 2024).
“Also recorded” adds a separate entry of the source.

Assays:
Huh-7 cells = assay: WST-8 conversion (metabolic activation) by Huh-7 cells; type: cell-based, human; conditions: RecACBP/DBI pre-incubated overnight with eicosapeptide, 4 h
Protocol: Media and cell culture supplements were purchased from Gibco-Invitrogen (Carlsbad, CA, USA). Plasticware was purchased from Corning B.V. Life Sciences (Schiphol-Rijk, The Netherlands). Unless reported otherwise, the cell line used in this study was cultured at standard conditions (37 °C, 5% CO2, Dulbecco’s modified Eagle’s medium containing 10% fetal bovine serum, 10 mM HEPES buffer, 100 mg/L sodium pyruvate, 100 U/mL penicillin G sodium, and 100 µg/mL streptomycin sulfate). 2-deoxy-D-glucose (# D8375) and rotenone (# R8875) were purchased from Sigma (Burlington, MA, USA). Human hepatocellular carcinoma (Huh-7) cell line was used for in vitro experiments. Cells were plated in 6- or 96-well plates and grown for 24 h before treatments.
WST-8 conversion assays were conducted utilizing the Cell Counting Kit-8 (Sigma-Aldrich, #96992). Cells were seeded in a 96-well plate at a density of 3000 cells per well and incubated overnight for adherence. Then, the culture medium was removed, and fresh medium containing the specified treatments was added to the wells. Immediately following the addition of treatments, 10 μL of CCK-8 reagent was introduced to each well. Subsequently, the cells were incubated for 4.5 h at 37 °C to facilitate the conversion of WST-8 in response to cellular activity. Following the incubation period, the absorbance at 450 nm was quantified using a VICTOR® Nivo™ microplate reader. This measurement served as an indicator of WST-8 conversion, reflecting cellular metabolic activity.
Fig. 6 Inhibition of the metabolic effects of ACBP/DBI on hepatocytes by the GABAARγ2-derived eicosapeptide. A WST-8 conversion by murine primary hepatocytes treated with increasing concentrations of recombinant ACBP/DBI protein (RecACBP/DBI) for 4 h. Hepatocytes were isolated from tamoxifen-induced Acbp/Dbi f/f or Acbp/Dbi KO full-body genetic background mice (white- or blue-colored graphs respectively). […] For statistical analysis p values are calculated by one-way ANOVA. B WST-8 conversion by control (shUNR) and ACBP/DBI-knocked down (shACBP/DBI) human Huh-7 cells treated with increasing concentrations of RecACBP/DBI for 4 h. shUNR and shACBP/DBI cells are represented by white- or blue-colored graphs respectively. […] C WST-8 conversion by Huh-7 cells treated with RecACBP/DBI or negative control (4 h). Cells were pre-treated with 2-deoxy-D-glucose (2-Deoxy-D-glu; 300 µM) or vehicle (2 h). […] D WST-8 conversion by Huh-7 cells treated with RecACBP/DBI or negative control (4 h). Cells were pre-treated with rotenone (0.5 µM) or vehicle (2 h). […] E WST-8 conversion by Huh-7 cells treated with RecACBP/DBI or negative control (4 h). Prior to administration, RecACBP/DBI was overnight pre-incubated with monoclonal antibody (α-ACBP/DBI) or isotype IgG1. […] F WST-8 conversion by Huh-7 cells treated with RecACBP/DBI or negative control (4 h). Prior to administration, RecACBP/DBI was overnight pre-incubated with GABAARγ2 (WT or F77I-mutated) eicosapeptides.

[1] = tested on: liver autophagy, C57BL/6 mice; assay: Liver autophagy activation in vivo (LC3 lipidation); parameters: species or system mouse; conditions: C57BL/6 male mice, peptide 5 mg/kg i.v. 4 h and 30 min before sacrifice, with or without leupeptin 30 mg/kg i.p., LC3 immunoblot, n = 5
Protocol: Ten-week-old C57BL/6 male mice were injected with GABAARγ2 peptides (5 mg/kg, i.v., dissolved in PBS) 4 h and 30 min before sacrifice. For inhibition of the autophagy flux, leupeptin (Leu, 30 mg/kg B.W., dissolved in PBS) was injected 2 h before sacrifice via an intraperitoneal (i.p.) injection. Control animals were i.v. injected with the vehicle (DMSO, 0.01%) and i.p. injected with PBS. All animals were sacrificed, and livers were snap-frozen in liquid nitrogen and stored at −80 °C.
Protein lysates were prepared from liver, epididymal white adipose tissue (eWAT), brown adipose tissue (BAT), muscle, heart or Hep55.1c cells. Immunoblot analysis was performed for GABAARγ2 (Abcam #ab87328), mouse ACBP/DBI (Abcam, #ab231910), Human ACBP (Santa-Cruz #sc-376853), MAP1LC3B (#2775, Cell Signaling Technologies), and β-actin (Abcam, #ab49900), as previously described..

C57BL/6 mice = assay: Concanavalin A-induced acute liver injury; type: in vivo, mouse; conditions: C57BL/6 male mice, peptide 5 mg/kg i.v. 90 min before concanavalin A 12 mg/kg i.v.
Protocol: GABAARγ2 peptides (5 mg/kg, i.v., dissolved in DMSO) were injected in 12-week-old C57BL/6 male mice 90 min before the injection of 12 mg/kg Concanavalin A (ConA, i.v., Sigma Aldrich, # C5275).
Fig. 7 In vivo inhibition of ACBP/DBI function by the GABAARγ2-derived eicosapeptide. A, B Appetite stimulation by ACBP/DBI. RecACBP/DBI alone or combined with GABAARγ2-derived eicosapeptides (EP) (WT or F77I) was administered in vivo by intravenous (i.v.) injection and individual cumulative food intake was measured after 30 min. GABAARγ2 peptides are represented as blue stars, while murine RecACBP/DBI is represented as red circles (A). […] C, D Immunoblots and densitometric quantification of LC3 lipidation in liver tissues from mice treated with GABAARγ2-derived eicosapeptides (EP) WT with or without the autophagy flux inhibitor leupeptin (n = 5 mice per group). p values were calculated by unpaired one-tailed Student’s t-test. E–G Inhibition of concanavalin A hepatotoxicity. GABAARγ2 WT peptide (or negative vehicle) was i.v. injected to C57BL/6 male mice followed by concanavalin A (or negative vehicle) administration 1.5 h later (E). Alanine transaminase (ALT) (F) and aspartate transaminase (AST) (G) activity in plasma was analyzed by means of a colorimetric assay (n = 7–9 mice per condition). p values were calculated by unpaired one-tailed Student’s t-test. ns: non-significant. Unt: Untreated.

[2] = listed as GABAARγ2-derived eicosapeptide

Which results are given for INMEYTIDIFFAQTWYDRRL [GABAARγ2-EP-WT]?
inhibition of RecACBP/DBI-stimulated WST-8 conversion (eicosapeptides) (Huh-7 cells; n = 3): inhibited the ACBP/DBI-stimulated metabolic activation of Huh7 cells; also recorded: efficiently blocked the effects of recombinant human ACBP/DBI protein on human hepatocytes; inhibition of RecACBP/DBI-stimulated WST-8 conversion (eicosapeptides) (Huh-7 cells; n = 3, listed as GABAARγ2-derived eicosapeptide): inhibited the metabolic activation of hepatocytes by recombinant ACBP/DBI protein in vitro; activation of autophagy in the liver [1]: activation of autophagy in the liver was induced; activation of autophagy in the liver [1, 2]: induced autophagy in the liver; protection against concanavalin A hepatotoxicity, in words (C57BL/6 mice): attenuate acute hepatotoxicity induced by concanavalin A; plasma alanine aminotransferase (ALT) after concanavalin A (C57BL/6 mice; n = 7–9): significantly blunted the surge; plasma aspartate aminotransferase (AST) after concanavalin A (C57BL/6 mice; n = 7–9): significantly blunted the surge; protection against concanavalin A hepatotoxicity, in words (C57BL/6 mice; [2]): protected mice against the hepatotoxin concanavalin A
